# Test results from patent US6953813B1, “2-Aminotetralin derivatives for the therapy of glaucoma” (Chiesi Farmaceutici S.p.A., priority 1999, dated 2005).
# What was measured:
# [1] = tested on: rabbit; settings: cited from earlier work; for effect on intraocular pressure: ophthalmic drops
# [2] = in vivo; cited from earlier work
# [3] = tested on: normotensive Dutch Belted rabbits; experiment: Intraocular pressure (IOP) after single dose in normotensive rabbits; format: in vivo, rabbit; settings: 0.2% w/v
# Procedure: Water (pH 4.5, made isotonic with sodium chloride), was selected as vehicle for the IOP-studies.
# Five concentrations (0.01, 0.05, 0.2, 0.5 and 1.0% w/v) of CHF 1035 were studied. Brimonidine (0.2% w/v) was used as a positive, and vehicle (water pH 4.5) as a negative control.
# The experimental animals used were normotensive Dutch Belted rabbits of either gender (n=6). A single drop (25 μl) of the test solution was instilled unilaterally into the left eye (treated eye). IOP of the rabbits (treated and untreated eyes) was measured at 1 and 0 h before, and at 0.5, 1, 2, 3, 4, 5, 6 and 7 h after topical eyedrop administration. IOP at the time of eyedrop administration (0 h) was used as a baseline value. IOP was measured using a BioRad Pneumatonometer. More detailed description of the IOP measurement procedure can be found in Pharm. Res. 14, 1738-1743, 1997 and Curr. Eye Res. 14, 791-797, 1995. All the studies were set up using a randomized crossover design. At least 72 h of wash-out time was allowed for each rabbit between dosings. The irritation caused by an instilled eyedrop were evaluated by recording the extent of eyelid closure after topical eyedrop administration.
smiles,measurement,setting,value
"CN(C)C1CCc2cc(O)c(O)cc2C1 (stereo not drawn) [N,N-dimethyl-6,7-dihydroxy-2-aminotetralin]",effect on intraocular pressure,[1],gives rise to eye hypotension in the rabbit
CCCN(CCc1cccs1)C1CCc2c(O)cccc2C1 (stereo not drawn) [2-(N-propyl-N-2-thienylethylamino)-5-hydroxytetralin],ocular side effects,[2],can also induce eye irritation
"NC1CCc2cc(O)c(O)cc2C1 (stereo not drawn) [6,7-dihydroxy-2-aminotetralin]",effect on intraocular pressure,[1],gives rise to eye hypotension in the rabbit
CNCC(O)c1ccc(OC(=O)C(C)(C)C)c(OC(=O)C(C)(C)C)c1 (stereo not drawn) [Dipivefrin],ocular side effects,[2],pain in the eye and in the superciliary arch as well as corneal vascularization and opacification during long-term use
"CN(C)C1CCc2c(ccc(O)c2O)C1 (stereo not drawn) [M-7, N,N-dimethyl-5,6-dihydroxy-2-aminotetralin]",concentration inducing eye irritation,[1]; in vivo,0.1%
same,effect on intraocular pressure,[1],active as well in reducing intraocular pressure
"Brc1c(NC2=NCCN2)ccc2nccnc12 [Brimonidine, reference compound]",IOP changes (mean ± SEM) in the treated eye,[3]; 0 min,0.0 ± 0.0 mmHg
same,IOP changes (mean ± SEM) in the treated eye,[3]; 30 min,−2.7 ± 0.9 mmHg
same,IOP changes (mean ± SEM) in the treated eye,[3]; 60 min,−7.8 ± 0.9 mmHg
same,IOP changes (mean ± SEM) in the treated eye,[3]; 120 min,−6.2 ± 1.4 mmHg
same,IOP changes (mean ± SEM) in the treated eye,[3]; 180 min,−3.9 ± 0.8 mmHg
same,IOP changes (mean ± SEM) in the treated eye,[3]; 240 min,−3.4 ± 0.7 mmHg
same,IOP changes (mean ± SEM) in the treated eye,[3]; 300 min,−2.4 ± 0.7 mmHg
same,IOP changes (mean ± SEM) in the treated eye,[3]; 360 min,−0.4 ± 0.6 mmHg
same,IOP changes (mean ± SEM) in the treated eye,[3]; 420 min,0.2 ± 0.3 mmHg
same,IOP changes (mean ± SEM) in the untreated eye,[3]; 0 min,0.0 ± 0.0 mmHg
same,IOP changes (mean ± SEM) in the untreated eye,[3]; 30 min,−3.2 ± 1.2 mmHg
same,IOP changes (mean ± SEM) in the untreated eye,[3]; 60 min,−8.7 ± 0.8 mmHg
same,IOP changes (mean ± SEM) in the untreated eye,[3]; 120 min,−3.3 ± 1.3 mmHg
same,IOP changes (mean ± SEM) in the untreated eye,[3]; 180 min,−1.7 ± 0.9 mmHg
same,IOP changes (mean ± SEM) in the untreated eye,[3]; 240 min,−2.1 ± 1.0 mmHg
same,IOP changes (mean ± SEM) in the untreated eye,[3]; 300 min,−0.6 ± 0.9 mmHg
same,IOP changes (mean ± SEM) in the untreated eye,[3]; 360 min,0.1 ± 0.6 mmHg
same,IOP changes (mean ± SEM) in the untreated eye,[3]; 420 min,0.0 ± 0.6 mmHg
